Columns and labels:
[1] = biological target: binding between Nrf2 and Keap1 (Homo sapiens (Human), UniProt Q14145); experiment: FP assay (in vitro): inhibition of Nrf2-Keap1 binding by fluorescence polarization; conditions: GST-fused human Keap1 (325-642) 20 nM, FITC-labeled Nrf2 peptide 10 nM, 2 hr at room temperature
[2] = test system: NQO1 activity in Hepa1c1c7 cells; experiment: NAD(P)H: quinone oxidoreductase-1 (NQO1) enzyme induction assay (in vitro); type: cell-based, mouse; conditions: Mus musculus, Hepa-1c1c7, NQO1 activity with 400 nM test compound as a ratio from the base without compound, about 48 hr
Outline: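 Mouse Hepa1c1c7 hepatoma cells treated 48 hr with 400 nM compound (final). NQO1 activity in lysates read by absorbance at 610 nm; value is background-subtracted activity ratio versus untreated cells.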

binding between Nrf2 and Keap1, sequence (Q14145 325-624 limits assumed): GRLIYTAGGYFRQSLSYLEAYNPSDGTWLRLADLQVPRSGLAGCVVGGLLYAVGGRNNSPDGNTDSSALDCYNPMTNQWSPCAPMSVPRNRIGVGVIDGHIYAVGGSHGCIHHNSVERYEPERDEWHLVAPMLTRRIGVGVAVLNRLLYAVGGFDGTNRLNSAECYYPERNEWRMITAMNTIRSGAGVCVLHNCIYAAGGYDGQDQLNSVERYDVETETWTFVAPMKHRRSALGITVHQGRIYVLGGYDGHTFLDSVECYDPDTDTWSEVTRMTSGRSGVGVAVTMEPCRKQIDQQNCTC

IC50 [1] | SMILES | fold induction at 0.4 µM [2]
≤ 10 nM | CC[C@@H]1CN(Cc2cc([C@H](CC(=O)O)c3cc(C4CC4)c4c(nnn4C)c3C)cc3ccsc23)S(=O)(=O)c2cc(Cl)cnc2O1 [Example 41, (3S)-3-(7-{[(4R)-8-Chloro-4-ethyl-1,1-dioxido-3,4-dihydro-2H-pyrido[2,3-b][1,4,5]oxathiazepin-2-yl]methyl}-1-benzothiophen-5-yl)-3-(7-cyclopropyl-1,4-dimethyl-1H-benzotriazol-5-yl)propanoic acid] | > 5
10 to 30 nM | CC[C@@H]1CN(Cc2cc([C@@H](CC(=O)O)c3ccc4c(nnn4C)c3C)cc3ccsc23)[C@@H](C)c2ncccc2O1 [Example 63, (3R)-3-(1,4-Dimethyl-1H-benzotriazol-5-yl)-3-(7-{[(2R,5S)-2-ethyl-5-methyl-2,3-dihydropyrido[2,3-f][1,4]oxazepin-4(5H)-yl]methyl}-1-benzothiophen-5-yl)propanoic acid] | > 5
≤ 10 nM | CCOc1ccc2c(n1)O[C@H](CC)CN(Cc1cc([C@H](CC(=O)O)c3ccc4c(nnn4C)c3C)cc3ccsc13)S2(=O)=O [Example 111, (3S)-3-(1,4-Dimethyl-1H-benzotriazol-5-yl)-3-(7-{[(4R)-7-ethoxy-4-ethyl-1,1-dioxido-3,4-dihydro-2H-pyrido[2,3-b][1,4,5]oxathiazepin-2-yl]methyl}-1-benzothiophen-5-yl)propanoic acid] | 3 to 5
30 to 100 nM | Cc1c([C@H](CC(=O)O)c2cc(CN3C[C@@H](C4CC4)Oc4ccc(O)nc4C3C)c3sccc3c2)ccc2c1nnn2C (single isomer, unassigned) [Example 83, (3R)-3-(7-{[(2R,5S*)-2-Cyclopropyl-7-hydroxy-5-methyl-2,3-dihydropyrido[2,3-f][1,4]oxazepin-4(5H)-yl]methyl}-1-benzothiophen-5-yl)-3-(1,4-dimethyl-1H-benzotriazol-5-yl)propanoic acid] | > 5
10 to 30 nM | CC[C@@H]1CN(Cc2cc([C@@H](CC(=O)O)c3ccc4c(nnn4C)c3C)cc3c2CCC3)[C@@H](C)c2ncccc2O1 [Example 65, (3R)-3-(1,4-Dimethyl-1H-benzotriazol-5-yl)-3-(7-{[(2R,5S)-2-ethyl-5-methyl-2,3-dihydropyrido[2,3-f][1,4]oxazepin-4(5H)-yl]methyl}-2,3-dihydro-1H-inden-5-yl)propanoic acid] | > 5
10 to 30 nM | CC[C@@H]1CN(Cc2cc(C(CC(=O)O)c3cc(C4CC4)c4c(nnn4C)c3C)cc3c2OCC3)[C@@H](C)c2ncccc2O1 (stereo partly drawn) [Example 107, 3-(7-Cyclopropyl-1,4-dimethyl-1H-benzotriazol-5-yl)-3-(7-{[(2R,5S)-2-ethyl-5-methyl-2,3-dihydropyrido[2,3-f][1,4]oxazepin-4(5H)-yl]methyl}-2,3-dihydro-1-benzofuran-5-yl)propanoic acid] | > 5
≤ 10 nM | CC[C@@H]1CN(Cc2cc([C@@H](CC(=O)O)c3cc(Cl)c4c(nnn4C)c3C)cc3ccsc23)S(=O)(=O)c2cc(Cl)cnc2O1 [Example 31, (3R)-3-(7-Chloro-1,4-dimethyl-1H-benzotriazol-5-yl)-3-(7-{[(4R)-8-chloro-4-ethyl-1,1-dioxido-3,4-dihydro-2H-pyrido[2,3-b][1,4,5]oxathiazepin-2-yl]methyl}-1-benzothiophen-5-yl)propanoic acid] | > 5
10 to 30 nM | CC[C@@H]1CN(Cc2cc(C(CC(=O)O)c3ccc4c(nnn4C)c3C)cc3c2CCC3)S(=O)(=O)c2cccnc2O1 (stereo partly drawn) [Example 24, 3-(1,4-Dimethyl-1H-benzotriazol-5-yl)-3-(7-{[(4R)-4-ethyl-1,1-dioxido-3,4-dihydro-2H-pyrido[2,3-b][1,4,5]oxathiazepin-2-yl]methyl}-2,3-dihydro-1H-inden-5-yl)propanoic acid] | > 5
≤ 10 nM | Cc1c([C@H](CC(=O)O)c2cc3c(c(CN4CC5(CC5)Oc5ncc(Cl)cc5S4(=O)=O)c2)CCC3)ccc2c1nnn2C [Example 42, (3R)-3-{7-[(8′-Chloro-1′,1′-dioxido-spiro[cyclopropane-1,4′-pyrido[2,3-b][1,4,5]oxathiazepine]-2′(3′H)-yl)methyl]-2,3-dihydro-1H-inden-5-yl}-3-(1,4-dimethyl-1H-benzotriazol-5-yl)propanoic acid] | > 5
≤ 10 nM | CC[C@@H]1CN(Cc2cc([C@@H](c3ccc4c(nnn4C)c3C)C(C)(C)C(=O)O)cc3c2CCC3)S(=O)(=O)c2cc(Cl)cnc2O1 [Example 38, (3S)-3-(7-{[(4R)-8-Chloro-4-ethyl-1,1-dioxido-3,4-dihydro-2H-pyrido[2,3-b][1,4,5]oxathiazepin-2-yl]methyl}-2,3-dihydro-1H-inden-5-yl)-3-(1,4-dimethyl-1H-benzotriazol-5-yl)-2,2-dimethylpropanoic acid] | > 5
≤ 10 nM | CC[C@@H]1CN(Cc2cc(C(CC(=O)O)c3ccc4c(nnn4C)c3C)cc3c2CCC3)S(=O)(=O)c2cccc(Cl)c2O1 (stereo partly drawn) [Example 16, 3-(7-{[(4R)-6-Chloro-4-ethyl-1,1-dioxido-3,4-dihydro-2H-5,1,2-benzoxathiazepin-2-yl]methyl}-2,3-dihydro-1H-inden-5-yl)-3-(1,4-dimethyl-1H-benzotriazol-5-yl)propanoic acid] | > 5
10 to 30 nM | Cc1c([C@H](CC(=O)O)c2cc(CN3CC4(CC4)Oc4ccc(O)nc4[C@H]3C)c3sccc3c2)ccc2c1nnn2C (single isomer, unassigned) [Example 88, (3R)-3-(1,4-Dimethyl-1H-benzotriazol-5-yl)-3-(7-{[(5′R*)-7′-hydroxy-5′-methyl-3′H-spiro[cyclopropane-1,2′-pyrido[2,3-f][1,4]oxazepin]-4′(5′H)-yl]methyl}-1-benzothiophen-5-yl)propanoic acid] | > 5
10 to 30 nM | CC[C@@H]1CN(Cc2cc(C(CC(=O)O)c3ccc4c(nnn4C)c3C)cc3c2CCC3)S(=O)(=O)c2cc(C)cnc2O1 (stereo partly drawn) [Example 10, 3-(1,4-Dimethyl-1H-benzotriazol-5-yl)-3-(7-{[(4R)-4-ethyl-8-methyl-1,1-dioxido-3,4-dihydro-2H-pyrido[2,3-b][1,4,5]oxathiazepin-2-yl]methyl}-2,3-dihydro-1H-inden-5-yl)propanoic acid] | > 5
≤ 10 nM | CC[C@@H]1CN(Cc2cc(C(CC(=O)O)c3ccc4c(nnn4C)c3C)cc3c2CCC3)S(=O)(=O)c2c(Cl)cccc2O1 (stereo partly drawn) [Example 17, 3-(7-{[(4R)-9-Chloro-4-ethyl-1,1-dioxido-3,4-dihydro-2H-5,1,2-benzoxathiazepin-2-yl]methyl}-2,3-dihydro-1H-inden-5-yl)-3-(1,4-dimethyl-1H-benzotriazol-5-yl)propanoic acid] | 3 to 5
≤ 10 nM | CC[C@@H]1CN(Cc2cc([C@H](CC(=O)O)c3ccc4c(nnn4C)c3C)cc3c2CCC3)S(=O)(=O)c2cc(Cl)c(F)cc2O1 [Example 21, (3S)-3-(7-{[(4R)-8-Chloro-4-ethyl-7-fluoro-1,1-dioxido-3,4-dihydro-2H-5,1,2-benzoxathiazepin-2-yl]methyl}-2,3-dihydro-1H-inden-5-yl)-3-(1,4-dimethyl-1H-benzotriazol-5-yl)propanoic acid] | > 5
10 to 30 nM | CC[C@@H]1CN(Cc2cc(C(CC(=O)O)c3ccc4c(nnn4C)c3C)cc3c2CCC3)S(=O)(=O)c2ccc(C)nc2O1 (stereo partly drawn) [Example 11, 3-(1,4-Dimethyl-1H-benzotriazol-5-yl)-3-(7-{[(4R)-4-ethyl-7-methyl-1,1-dioxido-3,4-dihydro-2H-pyrido[2,3-b][1,4,5]oxathiazepin-2-yl]methyl}-2,3-dihydro-1H-inden-5-yl)propanoic acid] | > 5
≤ 10 nM | CC[C@@H]1Cc2ncccc2S(=O)(=O)N(Cc2cc([C@@H](CC(=O)O)c3ccc4c(nnn4C)c3C)cc3c2CCC3)C1 (single isomer, unassigned) [Example 27, (3R)-3-(1,4-Dimethyl-1H-benzotriazol-5-yl)-3-(7-{[(4S*)-4-ethyl-1,1-dioxido-4,5-dihydropyrido[2,3-f][1,2]thiazepin-2(3H)-yl]methyl}-2,3-dihydro-1H-inden-5-yl)propanoic acid] | > 5
≤ 10 nM | CC[C@@H]1CN(Cc2cc([C@H](CC(=O)O)c3cc(C)c4c(nnn4C)c3C)cc3ccsc23)[C@@H](C)c2ncccc2O1 [Example 68, (3S)-3-(7-{[(2R,5S)-2-Ethyl-5-methyl-2,3-dihydropyrido[2,3-f][1,4]oxazepin-4(5H)-yl]methyl}-1-benzothiophen-5-yl)-3-(1,4,7-trimethyl-1H-benzotriazol-5-yl)propanoic acid] | > 5
10 to 30 nM | Cc1c([C@H](CC(=O)O)c2cc(CN3C[C@@H](C4CC4)Oc4ccc(O)nc4C3C)c3sccc3c2)cnc2c1nnn2C (single isomer, unassigned) [Example 85, (3R)-3-(7-{[(2R,5R*)-2-Cyclopropyl-7-hydroxy-5-methyl-2,3-dihydropyrido[2,3-f][1,4]oxazepin-4(5H)-yl]methyl}-1-benzothiophen-5-yl)-3-(3,7-dimethyl-3H-[1,2,3]triazolo[4,5-b]pyridin-6-yl)propanoic acid] | > 5
≤ 10 nM | CCC1c2ncccc2O[C@H](CC)CN1Cc1cc([C@H](CC(=O)O)c2ccc3c(nnn3C)c2C)cc2ccsc12 (single isomer, unassigned) [Example 76, (3S)-3-(7-{[(2R,5R*)-2,5-Diethyl-2,3-dihydropyrido[2,3-f][1,4]oxazepin-4(5H)-yl]methyl}-1-benzothiophen-5-yl)-3-(1,4-dimethyl-1H-benzotriazol-5-yl)propanoic acid] | > 5

— US20250092064A1, “BENZOTRIAZOLE COMPOUND” (DAIICHI SANKYO COMPANY, LIMITED, priority 2022, published 2025)
